Measured values published in patent publication US10890557B2, “Electrochemical biosensor” (I-SENS, INC., priority 2014, dated 2021).

Assays:
[1] = Stability test: UV-visible spectrum change over time in aqueous solution; format: physicochemical
Protocol: Specifically, the UV-visible spectrum of an aqueous solution of 1 mg of each osmium complex, ruthenium hexamine, and Ferricyanide dissolved in 1 mL of 0.1 M PBS (pH 7.4) was measured and stored at room temperature for 11 days.

[2] = system: FAD-glucose dehydrogenase (FAD-GDH); format: biochemical; conditions: pH 7.4
Protocol: To verify the electrochemical properties of osmium complex, cyclic voltammetry was performed. Using a carbon electrode as the working electrode, platinum as the auxiliary electrode, and an Ag/AgCl (sat. KCl) electrode as a reference electrode, the current was measured by changing the glucose concentration in a mixed solution including FAD-glucose dehydrogenase (FAD-GDH) 10 mg/mL, osmium complex 30 mmol and 0.1 M PBS (pH 7.4).

[3] = Text: In subsequent examples, an osmium complex sodium salt was used by substituting the osmium complex with NaOH at 1:3 equivalent ratios.

For `N.N.N.N.N.N.[Cl-].[Cl-].[Cl-].[Ru+3]` [ruthenium hexamine, Hexamine ruthenium chloride [Ru(NH3)6Cl3], reference compound], the “UV-visible spectrum change over time” value ([1]; 1 mg in 1 mL 0.1 M PBS (pH 7.4), room temperature, 11 days) was “no change in the UV-visible spectrum was observed over time”.

For Os(dcbpy)2Cl2 [osmium complex], the response slope [2] was 77.1 nA/(mg/dL), the “UV-visible spectrum change over time” value ([1]; pH 7.4) was “the absorbance of absorption peaks at 400 nm and 520 mm decreased with time” and the solubility in water [3] was “low solubility in water”.
